Article PMC11191095, “QSAR Reveals Decreased Lipophilicity of Polar Residues Determines the Selectivity of Antimicrobial Peptide Activity” (ACS Omega, 2024)
Where a SMILES comes first, the peptide text is derived from it.

Columns and labels:
[1] = test system: E. coli LEC001; experiment: microbe, parasite or virus in culture; assay type: cell-based, Escherichia coli; conditions: E. coli LEC001 (R); shown in µM
In short: (§1)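 Peptides 128→2 μg/mL, 2-fold series; inoculum ~5 × 10^5 CFU/mL from overnight culture (OD600 0.01, mixed 1:1). MHB non-cation-adjusted for bacteria, RPMI 1640 + 2% glucose for fungi. 37 °C, 20 h, OD600. MIC50/MIC90 at 50%/90% inhibition; n ≥ 3.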

[2] = test system: E. coli NCTC 12923; experiment: microbe, parasite or virus in culture; assay type: cell-based, Escherichia coli; conditions: E. coli NCTC 12923 (S); shown in µM
In short: as §1

[3] = test system: P. aeruginosa NCTC 13437; experiment: microbe, parasite or virus in culture; assay type: cell-based, Pseudomonas aeruginosa; conditions: P. aeruginosa NCTC 13437 (R); shown in µM
In short: as §1

[4] = test system: P. aeruginosa PAO1; experiment: microbe, parasite or virus in culture; assay type: cell-based, Pseudomonas aeruginosa; conditions: P. aeruginosa PAO1 (S)
In short: as §1

[5] = test system: A. baumannii ATCC 17978; experiment: microbe, parasite or virus in culture; assay type: cell-based, Acinetobacter baumannii; conditions: A. baumannii ATCC 17978 (S); shown in µM
In short: as §1

[6] = test system: A. baumannii AYE; experiment: microbe, parasite or virus in culture; assay type: cell-based, Acinetobacter baumannii; conditions: A. baumannii AYE (R); shown in µM
In short: as §1

[7] = test system: K. pneumoniae M6; experiment: microbe, parasite or virus in culture; assay type: cell-based, Klebsiella pneumoniae; conditions: K. pneumoniae M6 (S); shown in µM
In short: as §1

[8] = test system: K. pneumoniae NCTC 13368; experiment: microbe, parasite or virus in culture; assay type: cell-based, Klebsiella pneumoniae; conditions: K. pneumoniae NCTC 13368 (R); shown in µM
In short: as §1

[9] = test system: S. aureus (MRSA) 1199B; experiment: microbe, parasite or virus in culture; assay type: cell-based, Staphylococcus aureus; conditions: S. aureus (MRSA) 1199B (R); shown in µM
In short: as §1

[10] = test system: S. aureus (MRSA) NCTC 13616; experiment: microbe, parasite or virus in culture; assay type: cell-based, Staphylococcus aureus; conditions: S. aureus (MRSA) NCTC 13616 (R); shown in µM
In short: as §1

[11] = test system: S. aureus (MRSA) USA300; experiment: microbe, parasite or virus in culture; assay type: cell-based, Staphylococcus aureus; conditions: S. aureus (MRSA) USA300 (R); shown in µM
In short: as §1

[12] = test system: S. aureus (MSSA) ATCC 9144; experiment: microbe, parasite or virus in culture; assay type: cell-based, Staphylococcus aureus; conditions: S. aureus (MSSA) ATCC 9144 (S); shown in µM
In short: as §1

[13] = test system: C. auris TDG 1912; experiment: microbe, parasite or virus in culture; assay type: cell-based, Candida auris; conditions: C. auris TDG 1912
In short: as §1

[14] = test system: C. albicans NCPF 3281; experiment: microbe, parasite or virus in culture; assay type: cell-based; conditions: C. albicans NCPF 3281; shown in µM
In short: as §1

[15] = test system: C. glabrata NCPF 8018; experiment: microbe, parasite or virus in culture; assay type: cell-based; conditions: C. glabrata NCPF 8018
In short: as §1

[16] = test system: C. krusei NCPF 3876; experiment: microbe, parasite or virus in culture; assay type: cell-based; conditions: C. krusei NCPF 3876; shown in µM
In short: as §1

[17] = test system: C. parapsilosis NCPF 3209; experiment: microbe, parasite or virus in culture; assay type: cell-based; conditions: C. parapsilosis NCPF 3209; shown in µM
In short: as §1

[18] = test system: C. tropicalis NCPF 8760; experiment: microbe, parasite or virus in culture; assay type: cell-based; conditions: C. tropicalis NCPF 8760; shown in µM
In short: as §1

[19] = test system: human erythrocytes; experiment: In vitro hemolytic activity; assay type: cell-based; conditions: human erythrocytes in PBS, 1 h, 37 °C, OD550, from dose response curves
Protocol: Potential erythrocyte hemolysis was tested by incubating serial dilutions of the AMPs in PBS with freshly collected erythrocytes at a ratio of 1:1 in 96-well polypropylene V-shape plates for 1 h at 37 °C. Control wells were treated with 0.1% Triton-X-100 to ensure complete lysis or PBS-only to represent no lysis. The erythrocytes were collected by centrifugation and the OD550 of the supernatant was measured using a plate reader. The percentage hemolysis was calculated as [drawing 1] 1 where Apeptide is the absorbance value of erythrocytes exposed to a known peptide concentration, Agrowth control is the absorbance of erythrocytes exposed to 0.1% Triton-X-100 and Ablank is the absorbance of erythrocytes exposed to the PBS. The concentrations at which a peptide caused 10% (HC10) and 50% (HC50) hemolysis was determined from the dose response curves.

[20] = test system: HaCat cell line; experiment: In vitro HaCat cytotoxicity (MTT); assay type: cell-based, human; conditions: 21 h exposure, OD570, relative to untreated control
Protocol: The HaCat cell line (Cellonex, South Africa) was cultured in Dulbecco’s Modified Eagle Medium (DMEM) supplemented with 10% heat-inactivated fetal calf serum (FCS) and 1% antibiotic-antimycotic (Abs) and maintained at 5–10% CO2, 37 °C, 95% humidity. For cytotoxicity screening, 5.56 × 10^4 cells/mL were plated in a 96-well plate. After 24 h incubation, the cells are initially exposed to each peptide at a concentration of 256 μg/mL or 0.1% Triton-X-100 as the control for 21 h. If cytotoxicity was observed, at a level of significance of p < 0.0001 compared with the untreated control after 21 h, a dose-response assay was undertaken. Cell viability was determined by adding 10% 3-(4,5-dimethyl-2-thiazolyl)-2,5-diphenyl-2H-tetrazolium bromide (MTT) (1 mg/mL), to each well and after a further 3 h incubation the media was discarded, and the formazan crystals dissolved by adding 25% DMSO in ethanol. The absorbance was measured at OD570 by using the FLUOstar Omega multidetection microplate reader (BMG Labtech). Percentage cell viability was calculated relative to the untreated control. The LC50 was defined as the concentration of AMP treatment that results in 50% lethality of HaCat cells and was determined from the dose-response curves.

[21] = 50% growth inhibition, RPMI 1640 + 2% glucose, 37 °C, 20 h, OD600
[22] = 90% growth inhibition, RPMI 1640 + 2% glucose, 37 °C, 20 h, OD600
[23] = MHB, 37 °C, 20 h, OD600, min. three biological repeats

| Compound | Modal MIC [1] | Modal MIC [2] | Modal MIC [3] | Modal MIC ([4]; shown in µM) | Modal MIC [5] | Modal MIC [6] | Modal MIC [7] | Modal MIC [8] | Modal MIC [9] | Modal MIC [10] | Modal MIC [11] | Modal MIC [12] | Modal MIC50 [13, 21] | Modal MIC90 [13, 22] | Modal MIC50 ([13]; shown in µM) | Modal MIC90 ([13]; shown in µM) | Modal MIC50 [14] | Modal MIC90 [14] | Modal MIC50 ([15]; shown in µM) | Modal MIC90 ([15]; shown in µM) | also measured |
| --- | --- | --- | --- | --- | --- | --- | --- | --- | --- | --- | --- | --- | --- | --- | --- | --- | --- | --- | --- | --- | --- |
| CC[C@H](C)[C@H](NC(=O)[C@H](C)NC(=O)[C@H](CCCCN)NC(=O)[C@@H]1CCCN1C(=O)[C@@H](NC(=O)[C@H](CC(C)C)NC(=O)[C@H](CCCCN)NC(=O)[C@H](Cc1ccccc1)NC(=O)[C@H](CC(C)C)NC(=O)[C@@H](N)Cc1ccccc1)[C@@H](C)CC)C(=O)N[C@@H](CCCCN)C(=O)N[C@@H](CCCCN)C(=O)N[C@@H](CC(C)C)C(=O)N[C@H](C(=O)N[C@@H](CO)C(=O)N[C@@H](CCCCN)C(=O)N[C@@H](Cc1ccccc1)C(=O)N[C@@H](CCCCN)C(N)=O)[C@@H](C)CC [AamAP1-Lysa] (H-FLFKLIPKAIKKLISKFK-NH2) | 3.6 µM | 1.8 µM | 7.2 µM | 7.2 µM | 0.9 µM | 1.8 µM | 3.6 µM | 3.6 µM | 1.8 µM | 0.9 µM | 1.8 µM | 1.8 µM | > 128 µg/mL | > 128 µg/mL | > 57.8 µM | > 57.8 µM | 14.4 µM | 28.8 µM | 57.8 µM | 57.8 µM | Modal MIC50 [16]: 7.2 µM; Modal MIC90 [16]: 7.2 µM; Modal MIC50 [17]: 14.4 µM; Modal MIC90 [17]: 14.4 µM; Modal MIC50 [18]: 0.9 µM; Modal MIC90 [18]: 0.9 µM; HC10 (concentration causing 10% hemolysis) [19]: 53 µg/mL; HC50 (concentration causing 50% hemolysis) [19]: 256 µg/mL; % HaCat cell death at initial screening (256μg/mL) ± SD [20]: 94.8 ± 8.2% |
| CC[C@H](C)[C@H](NC(=O)[C@H](C)NC(=O)[C@H](CCCCN)NC(=O)[C@@H]1CCCN1C(=O)[C@@H](NC(=O)[C@H](CC(C)C)NC(=O)[C@H](CO)NC(=O)[C@H](Cc1ccccc1)NC(=O)[C@H](CC(C)C)NC(=O)[C@@H](N)Cc1ccccc1)[C@@H](C)CC)C(=O)NCC(=O)NCC(=O)N[C@@H](CC(C)C)C(=O)N[C@H](C(=O)N[C@@H](CO)C(=O)N[C@@H](C)C(=O)N[C@@H](Cc1ccccc1)C(=O)N[C@@H](CCCCN)C(N)=O)[C@@H](C)CC [AamAP-S1a] | 8.1 µM | 8.1 µM | 64.8 µM | > 64.8 µM | 4.1 µM | 4.1 µM | 32.4 µM | 32.4 µM | 2 µM | 4.1 µM | 4.1 µM | 2 µM | > 128 µg/mL | > 128 µg/mL | > 64.8 µM | > 64.8 µM | 64.8 µM | 64.8 µM | > 64.8 µM | > 64.8 µM | Modal MIC [4, 23]: > 128 µg/mL; Modal MIC50 ([15]; 50% growth inhibition, RPMI 1640 + 2% glucose, 37 °C, 20 h): > 128 µg/mL; Modal MIC90 ([15]; 90% growth inhibition, RPMI 1640 + 2% glucose, 37 °C, 20 h): > 128 µg/mL; Modal MIC50 [16]: 32.4 µM; Modal MIC90 [16]: 32.4 µM; Modal MIC50 [17]: 64.8 µM; Modal MIC90 [17]: 64.8 µM; Modal MIC50 [18]: 8.1 µM; Modal MIC90 [18]: 8.1 µM; HC10 (concentration causing 10% hemolysis) [19]: 45 µg/mL; HC50 (concentration causing 50% hemolysis) [19]: 112 µg/mL; HC50 (concentration causing 50% hemolysis) ([19]; listed as AamAP1-S1a): lower than 256 µg/mL; % HaCat cell death at initial screening (256μg/mL) ± SD [20]: 97.6 ±12.6% |
| CC[C@H](C)[C@H](N)C(=O)N[C@@H](CC(C)C)C(=O)N[C@@H](CCCCN)C(=O)N[C@@H](CCCCN)C(=O)N[C@H](C(=O)N[C@@H](Cc1c[nH]c2ccccc12)C(=O)N[C@@H](CCC(=O)O)C(=O)NCC(=O)N[C@H](C(=O)N[C@@H](CCCCN)C(=O)N[C@@H](CO)C(=O)N[C@@H](CC(C)C)C(=O)N[C@@H](Cc1ccccc1)C(N)=O)[C@@H](C)CC)[C@@H](C)CC [K3-IsCTa] (H-ILKKIWEGIKSLF-NH2) | 5 µM | 5 µM | 39.8 µM | > 79.5 µM | 2.5 µM | 5 µM | 9.9 µM | 9.9 µM | 5 µM | 5 µM | 9.9 µM | 5 µM | > 128 µg/mL | > 128 µg/mL | > 79.5 µM | > 79.5 µM | 19.9 µM | 39.8 µM | 39.8 µM | 39.8 µM | Modal MIC [4, 23]: > 128 µg/mL; Modal MIC50 [16]: 9.9 µM; Modal MIC90 [16]: 19.9 µM; Modal MIC50 [17]: 39.8 µM; Modal MIC90 [17]: 39.8 µM; Modal MIC50 [18]: 2.5 µM; Modal MIC90 [18]: 5 µM; HC10 (concentration causing 10% hemolysis) [19]: 84 µg/mL; % HaCat cell death at initial screening (256μg/mL) ± SD [20]: 104.1 ± 11.9% |
